Laboratory results from PubChem BioAssay (NCI).
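In this assay, cells in 96-well plates receive the compound at five concentrations for 48 hours. Endpoints are linearly interpolated between the surrounding concentrations. The concentration for 50% growth inhibition is given as GI50. TGI is the concentration that stops growth completely.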

Legend:
Assay in all cases: NCI tumour cell line growth inhibition, 48 h
LOX IMVI melanoma = test system: LOX IMVI melanoma
HCC-2998 colon = test system: HCC-2998 colon
UACC-62 melanoma = test system: UACC-62 melanoma
DU-145 prostate = test system: DU-145 prostate
KM12 colon = test system: KM12 colon
MOLT-4 leukemia = test system: MOLT-4 leukemia
RXF 393 renal = test system: RXF 393 renal
SK-MEL-28 melanoma = test system: SK-MEL-28 melanoma
SNB-19 CNS = test system: SNB-19 CNS
HOP-62 NSCLC = test system: HOP-62 NSCLC
MCF7 breast = test system: MCF7 breast
EKVX NSCLC = test system: EKVX NSCLC
K-562 leukemia = test system: K-562 leukemia
SK-MEL-2 melanoma = test system: SK-MEL-2 melanoma
HOP-92 NSCLC = test system: HOP-92 NSCLC
PC-3 prostate = test system: PC-3 prostate
T-47D breast = test system: T-47D breast
NCI-H226 lung = test system: NCI-H226 lung
HCT-15 colon = test system: HCT-15 colon
HCT-116 colon = test system: HCT-116 colon
UO-31 renal = test system: UO-31 renal
A549 NSCLC = test system: A549 NSCLC
A498 renal = test system: A498 renal
SF-268 CNS = test system: SF-268 CNS
ACHN renal = test system: ACHN renal
BT-549 breast = test system: BT-549 breast
HS 578T breast = test system: HS 578T breast
SF-295 CNS = test system: SF-295 CNS
NCI/ADR-RES ovarian = test system: NCI/ADR-RES ovarian
SN12C renal = test system: SN12C renal
NCI-H23 lung = test system: NCI-H23 lung
SNB-75 CNS = test system: SNB-75 CNS
OVCAR-8 ovarian = test system: OVCAR-8 ovarian
SK-OV-3 ovarian = test system: SK-OV-3 ovarian
MDA-MB-435 = test system: MDA-MB-435
SK-MEL-5 melanoma = test system: SK-MEL-5 melanoma
OVCAR-3 ovarian = test system: OVCAR-3 ovarian
OVCAR-5 ovarian = test system: OVCAR-5 ovarian
CAKI-1 renal = test system: CAKI-1 renal
MALME-3M melanoma = test system: MALME-3M melanoma
OVCAR-4 ovarian = test system: OVCAR-4 ovarian
NCI-H460 lung = test system: NCI-H460 lung
RPMI-8226 leukemia = test system: RPMI-8226 leukemia
NCI-H522 lung = test system: NCI-H522 lung
UACC-257 melanoma = test system: UACC-257 melanoma
TK-10 renal = test system: TK-10 renal
786-0 renal = test system: 786-0 renal
U251 CNS = test system: U251 CNS
HT29 colon = test system: HT29 colon
SF-539 CNS = test system: SF-539 CNS
COLO 205 colon = test system: COLO 205 colon
SR leukemia = test system: SR leukemia
M14 melanoma = test system: M14 melanoma
SW-620 colon = test system: SW-620 colon
HL-60(TB) leukemia = test system: HL-60(TB) leukemia
MDA-MB-231 breast = test system: MDA-MB-231 breast

## CC(=O)O[C@H]1CCC2(C)C(=CCC3C2CCC2(C)/C(=N/OC(=O)c4ccc(N(CCCl)CCCl)cc4)CCC32)C1 (some centres not stated)
LOX IMVI melanoma
  GI50: 2.6 µM
  TGI: > 100 µM
HCC-2998 colon
  GI50: > 55.5 µM
  TGI: > 100 µM
UACC-62 melanoma
  GI50: 7.86 µM
  TGI: > 100 µM
DU-145 prostate
  GI50: > 89.1 µM
  TGI: > 100 µM
KM12 colon
  GI50: 7.13 µM
  TGI: > 100 µM
MOLT-4 leukemia
  GI50: 4.91 µM
  TGI: > 100 µM
RXF 393 renal
  GI50: 3.05 µM
  TGI: 45.9 µM
SK-MEL-28 melanoma
  GI50: > 100 µM
  TGI: > 100 µM
SNB-19 CNS
  GI50: 3.16 µM
  TGI: 98.2 µM
HOP-62 NSCLC
  GI50: 4.42 µM
  TGI: 24.9 µM
MCF7 breast
  GI50: 12.7 µM
  TGI: > 100 µM
EKVX NSCLC
  GI50: 8.78 µM
  TGI: > 100 µM
K-562 leukemia
  GI50: 3.9 µM
  TGI: > 100 µM
SK-MEL-2 melanoma
  GI50: 32.4 µM
  TGI: > 100 µM
HOP-92 NSCLC
  GI50: 13.8 µM
  TGI: > 100 µM
PC-3 prostate
  GI50: 7.99 µM
  TGI: > 100 µM
T-47D breast
  GI50: 4.02 µM
  TGI: > 100 µM
NCI-H226 lung
  GI50: > 45.3 µM
  TGI: > 100 µM
HCT-15 colon
  GI50: 8.87 µM
  TGI: > 100 µM
HCT-116 colon
  GI50: 2.34 µM
  TGI: > 100 µM
UO-31 renal
  GI50: 1.99 µM
  TGI: > 20.8 µM
A549 NSCLC
  GI50: 2.45 µM
  TGI: 8.37 µM
A498 renal
  GI50: 3.52 µM
  TGI: > 62.8 µM
SF-268 CNS
  GI50: 2.55 µM
  TGI: 7.71 µM
ACHN renal
  GI50: 5.19 µM
  TGI: > 100 µM
BT-549 breast
  GI50: 8.67 µM
  TGI: > 100 µM
HS 578T breast
  GI50: 2.41 µM
  TGI: 13.5 µM
SF-295 CNS
  GI50: 3.84 µM
  TGI: > 58 µM
NCI/ADR-RES ovarian
  GI50: 5.73 µM
  TGI: > 100 µM
SN12C renal
  GI50: 5.48 µM
  TGI: > 100 µM
NCI-H23 lung
  GI50: 6 µM
  TGI: > 100 µM
SNB-75 CNS
  GI50: 4.47 µM
  TGI: 42.7 µM
OVCAR-8 ovarian
  GI50: 4.02 µM
  TGI: > 100 µM
SK-OV-3 ovarian
  GI50: > 100 µM
  TGI: > 100 µM
MDA-MB-435
  GI50: 10.8 µM
  TGI: > 100 µM
SK-MEL-5 melanoma
  GI50: 20.4 µM
  TGI: > 100 µM
OVCAR-3 ovarian
  GI50: 9.84 µM
  TGI: > 100 µM
OVCAR-5 ovarian
  GI50: > 72.8 µM
  TGI: > 100 µM
CAKI-1 renal
  GI50: 3.88 µM
  TGI: > 100 µM
MALME-3M melanoma
  GI50: > 65.4 µM
  TGI: > 100 µM
OVCAR-4 ovarian
  GI50: 7.78 µM
  TGI: > 100 µM
NCI-H460 lung
  GI50: 4.65 µM
  TGI: > 100 µM
RPMI-8226 leukemia
  GI50: 5.68 µM
  TGI: > 100 µM
NCI-H522 lung
  GI50: 4.88 µM
  TGI: > 82.8 µM
UACC-257 melanoma
  GI50: > 100 µM
  TGI: > 100 µM
TK-10 renal
  GI50: 8.71 µM
  TGI: > 73.6 µM
786-0 renal
  GI50: 4.21 µM
  TGI: > 100 µM
U251 CNS
  GI50: 1.88 µM
  TGI: > 28.8 µM
HT29 colon
  GI50: 4.92 µM
  TGI: > 100 µM
SF-539 CNS
  GI50: 6.89 µM
  TGI: > 100 µM
COLO 205 colon
  GI50: > 100 µM
  TGI: > 100 µM
SR leukemia
  GI50: 1.4 µM
  TGI: 5.98 µM
M14 melanoma
  GI50: 20.3 µM
  TGI: > 100 µM
SW-620 colon
  GI50: > 100 µM
  TGI: > 100 µM
HL-60(TB) leukemia
  GI50: 7.01 µM
  TGI: > 100 µM
MDA-MB-231 breast
  GI50: 4.46 µM
  TGI: > 100 µM
